The values below come from patent US10851072B2 (THE REGENTS OF THE UNIVERSITY OF MICHIGAN, priority 2018, dated 2020).

Data set [1] has as its system serum response element (SRE). As to the kind of experiment: SRE.L-Luciferase Reporter Assay. The data set is classed as cell-based. The following applies: Homo sapiens, HEK-293T cells co-transfected with Gα12Q231L, SRE.L and pRL-TK plasmids, 19 hrs treatment. How it is done:
Biological activity of the compounds disclosed herein were assessed in the SRE.L luciferase reporter assay. HEK-293T cells were co-transfected with 2 ng of the Gα12Q231L expression plasmid along with 50 ng of the SRE.L and 7 ng of the pRL-TK luciferase reporter plasmids, as described in the Materials and Methods section. Cells were treated with 0 (vehicle, DMSO alone), 1, 3, 10, 30, and 100 μM of a compound disclosed herein for 19 hrs after transfection before lysis. Luminescence was determined as described in the Materials and Methods section. Just before cell lysis, the viability of the cells was measured using the WST-1 cell proliferation reagent as described in the Materials and Methods section. Data are expressed as percentage of inhibition (DMSO alone=0%). The experiments were performed three separate times to achieve n=3 in triplicate.
Background: Reporter assays use an easily measured gene product as a stand-in for the process of interest.

Data set [2] can be described thus: MLM metabolic stability (half-life). The data set is classed as in vitro ADME, mice. To be noted: mouse, mouse liver microsomes (MLM), 1 μM compound, beta-NADPH 1 mM, 60 min, LC-MS, read-out: MLM T1/2. How it is done:
Compounds (1 μM) were incubated with MLM in the presence of beta-NADPH (1 mM) for 60 min. The remaining drug concentration was measured using LC-MS using multiple reaction monitoring (MRM) mode. Both initial and overall disappearance rate and half-lives were calculated. […] Verapamil was run as a positive control in every assay; its half-life could not exceed 4 min or the assay was considered invalid.
Background: Liver microsomes are a subcellular fraction often used to study metabolism.

Regarding `O=C(O)[C@H]1C[C@@H](Sc2nnc(-c3ccc(C4CC4)cc3Cl)o2)C1` [Compound B3, cis-3-((5-(2-chloro-4-cyclopropylphenyl)-1,3,4-oxadiazol-2-yl)thio)cyclobutanecarboxylic acid], the half-inhibitory concentration (IC50) (in general, the concentration at which inhibition is half-maximal) in data set [1] (Table E) was determined as 0.46 nM.

Consider `O=C(O)[C@H]1CC[C@H](Sc2nnc(-c3ccc(Cl)cc3Cl)o2)C1` (relative stereo) [Compound B8, trans-3-((5-(2,4-dichlorophenyl)-1,3,4-oxadiazol-2-yl)thio)cyclopentanecarboxylic acid], for which the IC50 in data set [1] (Table E) was > 100000 nM.

With `O=C(O)[C@H]1CC[C@H](Sc2nnc(-c3ccc(Cl)cc3Cl)o2)CC1` [Compound B10, trans-4-((5-(2,4-dichlorophenyl)-1,3,4-oxadiazol-2-yl)thio)cyclohexanecarboxylic acid], the IC50 in data set [1] (Table E) was > 100000 nM.

Compound `CC(C)(F)c1ccc(-c2nnc(SCCCC(=O)O)o2)cc1` [Compound A22] returned an IC50 in data set [1] (Table C) of 9.5 nM.

The compound `O=C(O)[C@H]1C[C@@H](Sc2nnc(-c3ccc(Cl)cc3Cl)o2)C1` [Compound B2, cis-3-((5-(2,4-Dichlorophenyl)-1,3,4-oxadiazol-2-yl)thio)cyclobutanecarboxylic acid] showed an IC50 in data set [1] (Table E) of 4.9 nM. The half-life at 1 μM in data set [2] is > 1 h.

As to `O=C(O)CCCSc1nnc(-c2ccc(OC3CC3)cc2Cl)o1` [Compound A8, 4-((5-(2-chloro-4-cyclopropoxyphenyl)-1,3,4-oxadiazol-2-yl)thio)butanoic acid], the half-life at 1 μM in data set [2] is > 1 h.

For the compound `O=C(O)CCCSc1nnc(-c2ccc(OCC(F)(F)F)cc2)o1` [Compound A17, 4-((5-(4-(2,2,2-trifluoroethoxy)phenyl)-1,3,4-oxadiazol-2-yl)thio)butanoic acid], the IC50 in data set [1] (Table C) stood at 240 nM.

`O=C(O)CCCSc1nnc(-c2ccc(OC(F)(F)F)cc2Cl)o1` [Compound A14, 4-((5-(2-chloro-4-(trifluoromethoxy)phenyl)-1,3,4-oxadiazol-2-yl)thio)butanoic acid] had an IC50 in data set [1] (Table C) of 3.6 nM.

`O=C(O)CCCSc1nnc(-c2ccc(C(F)F)cc2)o1` [Compound A18, 4-((5-(4-(difluoromethyl)phenyl)-1,3,4-oxadiazol-2-yl)thio)butanoic acid] showed an IC50 in data set [1] (Table C) of 160 nM.

For `O=C(O)CCCSc1nnc(-c2ccc(Cl)cc2O)o1` [Compound C, 4-((5-(4-chloro-2-hydroxyphenyl)-1,3,4-oxadiazol-2-yl)thio)butanoic acid], the midpoint of inhibition in data set [1] (Table C), the IC50, lay at 0.02 nM.

In data set [1] (Table C), `O=C(O)CCCSc1nnc(-c2ccc(OCC(F)(F)F)cc2Cl)o1` [Compound A12, 4-((5-(2-chloro-4-(2,2,2-trifluoroethoxy)phenyl)-1,3,4-oxadiazol-2-yl)thio)butanoic acid] had an IC50 of 0.8 nM. For the same compound, the half-life at 1 μM in data set [2] was > 1 h.

`O=C(O)[C@H]1C[C@H](Sc2nnc(-c3ccc(Cl)cc3Cl)o2)C1` [Compound B1, trans-3-((5-(2,4-dichlorophenyl)-1,3,4-oxadiazol-2-yl)thio)cyclobutanecarboxylic acid] gave an IC50 in data set [1] (Table E) of 140 nM.

`O=C(O)CCCSc1nnc(-c2ccc(OCC3COC3)cc2Cl)o1` [Compound A15, 4-((5-(2-chloro-4-(oxetan-3-ylmethoxy)phenyl)-1,3,4-oxadiazol-2-yl)thio)butanoic acid] had a half-maximal inhibitory concentration (IC50) in data set [1] (Table D) of 35 nM.

With `COC(=O)CCCSc1nnc(-c2ccc(C3CC3)cc2Cl)o1` [Compound A10, Methyl 4-((5-(2-chloro-4-cyclopropylphenyl)-1,3,4-oxadiazol-2-yl)thio)butanoate], in data set [1] (Table D), 3 nM corresponded to half-maximal inhibition (IC50).

As for `O=C(O)CCCSc1nnc(-c2cccc(C(F)(F)F)c2Cl)o1` [Compound A20, 4-((5-(2-chloro-3-(trifluoromethyl)phenyl)-1,3,4-oxadiazol-2-yl)thio)butanoic acid], the IC50 in data set [1] (Table C) amounted to 330 nM.

`O=C(O)[C@H]1C[C@H](Sc2nnc(-c3ccc(C4CC4)cc3Cl)o2)C1` [Compound B4, trans-3-((5-(2-chloro-4-cyclopropylphenyl)-1,3,4-oxadiazol-2-yl)thio)cyclobutanecarboxylic acid]: the IC50 in data set [1] (Table E) amounted to 2.6 nM.

Take `O=C(O)CCCSc1nnc(-c2ccc(OC(F)(F)F)cc2)o1` [Compound A19, 4-((5-(4-(trifluoromethoxy)phenyl)-1,3,4-oxadiazol-2-yl)thio)butanoic acid]: the midpoint of inhibition in data set [1] (Table C), the IC50, lay at 78 nM.

`O=C(O)CCCSc1nnc(-c2ccc(OC(F)F)cc2)o1` [Compound A23, 4-((5-(4-(difluoromethoxy)phenyl)-1,3,4-oxadiazol-2-yl)thio)butanoic acid] displayed an IC50 in data set [1] (Table C) of 130 nM.

Compound `O=C(O)CCCSc1nnc(-c2ccccc2F)o1` [Compound A6, 4-((5-(2-fluorophenyl)-1,3,4-oxadiazol-2-yl)thio)butanoic acid] returned an IC50 in data set [1] (Table C) of 211 nM.

In the case of `O=C(O)[C@H]1C[C@@H](Sc2nnc(-c3ccc(C(F)(F)F)cc3Cl)o2)C1` [Compound B5, cis-3-((5-(2-chloro-4-(trifluoromethyl)phenyl)-1,3,4-oxadiazol-2-yl)thio)cyclobutanecarboxylic acid], inhibition in data set [1] (Table E) was half-maximal at 42 nM (IC50).

`O=C(O)CCCSc1nnc(-c2ccc(Cl)cc2Cl)o1` [CCG-232120, reference compound]: in data set [1] (Table C), the IC50 was 1.8 nM.

For `O=C(O)CCCSc1nnc(-c2ccccc2C(F)(F)F)o1` [Compound A5, 4-((5-(2-(trifluoromethyl)phenyl)-1,3,4-oxadiazol-2-yl)thio)butanoic acid], in data set [1] (Table C), 6200 nM corresponded to half-maximal inhibition (IC50).

Take `O=C(O)CCCSc1nnc(-c2cc(C3CC3)ccc2Cl)o1` [Compound A4, 4-((5-(2-chloro-5-cyclopropylphenyl)-1,3,4-oxadiazol-2-yl)thio)butanoic acid]: in data set [1] (Table D), 11 nM corresponded to half-maximal inhibition (IC50).

The compound `O=C(O)[C@@H]1CC[C@H](Sc2nnc(-c3ccc(Cl)cc3Cl)o2)C1` (relative stereo) [Compound B7, cis-3-((5-(2,4-dichlorophenyl)-1,3,4-oxadiazol-2-yl)thio)cyclopentanecarboxylic acid] came in with an IC50 in data set [1] (Table E) of 15 nM.

`O=C(O)[C@H]1C[C@H](Sc2nnc(-c3ccc(C(F)(F)F)cc3Cl)o2)C1` [Compound B6, trans-3-((5-(2-chloro-4-(trifluoromethyl)phenyl)-1,3,4-oxadiazol-2-yl)thio)cyclobutanecarboxylic acid]: in data set [1] (Table E), the midpoint of inhibition, the IC50, lay at 1000 nM.

On to `O=C(O)[C@H]1CC[C@@H](Sc2nnc(-c3ccc(Cl)cc3Cl)o2)CC1` [Compound B9, cis-4-((5-(2,4-dichlorophenyl)-1,3,4-oxadiazol-2-yl)thio)cyclohexanecarboxylic acid], for which, in data set [1] (Table E), the IC50 was > 100000 nM.

The compound `CC1(COc2ccc(-c3nnc(SCCCC(=O)O)o3)c(Cl)c2)COC1` [Compound A16, 4-((5-(2-chloro-4-((3-methyloxetan-3-yl)methoxy)phenyl)-1,3,4-oxadiazol-2-yl)thio)butanoic acid] returned an IC50 in data set [1] (Table D) of 42 nM.

In data set [1] (Table D), `O=C(O)CCCSc1nnc(-c2ccc(OCC3CC3)cc2Cl)o1` [Compound A7, 4-((5-(2-chloro-4-(cyclopropylmethoxy)phenyl)-1,3,4-oxadiazol-2-yl)thio)butanoic acid] returned an IC50 of 0.02 nM.

As to `O=C(O)CCCSc1nnc(-c2ccc(C(F)(F)F)cc2Cl)o1` [Compound A2], in data set [2], the half-life at 1 μM is > 1 h.
